In ChEMBL document CHEMBL5108021, “Discovery of 3-pyrazolyl-substituted pyrazolo[1,5-a]pyrimidine derivatives as potent TRK inhibitors to overcome clinically acquired resistance” (Eur J Med Chem, 2022):

Tests used:
[1] = test system: BaF3; test: Antitumor activity against mouse BaF3 cells expressing […]-wild type TRKA xenografted in BALB/c mouse assessed as inhibition of tumor growth at 30 mg/kg, po bid for 11 to 14 days by microcaliper analysis; assay type: functional; conditions: time 11-14 day, read-out: TGI
[2] = test system: BaF3; test: animal or person; conditions: Mus musculus, BaF3, po, read-out: TGI

Compound	inhibition in vivo at 30 mg/kg [1]	inhibition in vivo at 100 mg/kg [2]
O=C(Nc1cnn2ccc(N3CCC[C@@H]3c3cc(F)ccc3F)nc12)N1CC[C@H](O)C1 [LAROTRECTINIB]	74%	–
C[C@@H]1CCc2ncc(F)cc2[C@H]2CCCN2c2ccn3ncc(c3n2)C(=O)N1 [SELITRECTINIB]	–	64%
